Results published in patent US20240082212A1, “USE OF MDMA FOR TREATMENT OF STRESS-RELATED DISORDERS” (priority 2022, published 2024).
Entries after “also recorded” stand apart in the source; their conditions may differ.

How the values were obtained:
CD (Sprague Dawley) rats [1] = test: Rat functional observation battery (FOB) neurobehavioral evaluation after cumulative SC dosing; format: in vivo
Procedure: The observations were assessed through a rat functional observation battery (FOB) and continuous physiological measurements on the day of cumulative dosing, which are provided in further detail below.
(§1) Methods. A total of 42 adult male CD® (Sprague Dawley) rats (Charles River Laboratories) were surgically implanted with DSI radiotelemetry devices by personnel at Charles River Laboratories Raleigh, NC, per their test site SOPs. Telemetry devices supported continuous recording of temperature, activity, blood pressure and heart rate. Telemeterized rats were shipped to the Charles River Laboratories testing facility (Mattawan, MI) and acclimated to the environment for at least 1 week prior to experimentation. Animals were pair-housed in solid bottom cages with nonaromatic bedding. On the dosing day, animals were singly housed and then returned to the paired cohort following the dosing/telemetry recording phase. Diet (Lab Diet® Certified Rodent Diet #5CR4) and tap water via an automatic water system were available ad libitum, except during designated procedures. Temperature and humidity were maintained according to the Testing Facility SOP. Animals were randomized into treatment groups using a standard, by weight, measured value randomization procedure. Body weight was determined for each rat prior to dosing.
(§2) As illustrated in the Table, a total of 36 rats were included in the study. The vehicle and 2 test article doses were administered in a volume of 1 mL/kg to each of 3 groups of n=12 telemeterized rats via subcutaneous injection four times on a given day, followed by neurobehavioral evaluations. This series was repeated 3 times on study. Each group received all 3 dose levels of the applicable test or control article in ascending order with a 1-week washout between dose levels.
(§3) Mortality/cage side clinical observations were conducted for all study animals at least twice daily beginning upon receipt through termination, except on days of receipt and termination where frequency was at least once daily. Detailed clinical observations were conducted for all study animals prior to each of the four cumulative doses in a series. Individual body weights were conducted for all study animals at transfer, prior to randomization, on the day of dosing on each of the 3 cycles of dosing. The body weights recorded at transfer and prior to randomization are not reported but are maintained in the study file. Veterinary care was available throughout the course of the study, and animals were examined by the veterinary staff as needed based on clinical signs or other changes. All animals were provided with HydroGel the night prior to their respective dosing days to potentially mitigate any animal welfare issues related to fluid loss/dehydration.
Neurobehavioral evaluations (blinded) were conducted for all study animals 1 hour following the last (4th) cumulative dose of the series. The neurobehavioral parameters evaluated included: activity measurements (arousal/alertness, posture/body carriage, stereotypy, rearing, and appearance), autonomic measurements (exophthalmus, lacrimation, erected fur, pupil response, salivation, defecation, and palpebral closure/ptosis), excitability measurements (vocalizations, startle response, ease of removal, handling reactivity, and convulsions), neuromuscular measurements (gait/mobility, grip strength/response, air righting reflex, tremor, and body tone), physiological measurements (respiration and body temperature), and sensorimotor measurements (touch response/tactile reflex and thermal response).

CD (Sprague Dawley) rats [2] = test: Rat telemetry: heart rate, blood pressure, body temperature, activity after cumulative SC dosing; format: in vivo
Text: as §1, §2, §3
Telemetry monitoring was conducted for all animals 2 hours prior to dosing and through to 7.5 hours following the last (4th) cumulative dose of each series, which included continuous data collection of body temperature, activity, heart rate, and blood pressure (systolic, diastolic, and mean arterial) using telemetry.
The total period of time over which the statistical analyses were conducted encompassed the entire dosing period for all animals (i.e., Dose 1 through 7.5 hour post-4th dose) in an effort to draw conclusions regarding the effects of the dosing procedure and cumulative changes by allowing comparisons between the cumulative dosing periods. The following statistical analyses were performed for each analysis segment.
All time-series data comparisons conducted via statistical analysis are relative to the control treatment and are based on the LSMean values. Additionally, the change values used for the statistical analysis were calculated using a baseline of the 2 hours of pre-dose data, prior to the first compound injection of the series. The raw change values were analyzed.

[3] = 1 h after last of 4 hourly SC injections, R-MDMA and racemic MDMA 10, 20 mg/kg/day, S-MDMA 5, 10 mg/kg/day
[4] = 1 h after last of 4 hourly SC injections, racemic MDMA 10, 20 mg/kg/day, S-MDMA 5, 10 mg/kg/day
[5] = FOB, cumulative SC dosing, dose groups stated in the value
[6] = racemic MDMA 20 mg/kg/day, S-MDMA 10 mg/kg/day, approximate
[7] = telemetry, cumulative SC dosing, dose groups stated in the value

SMILES: CNC(C)Cc1ccc2c(c1)OCO2 (single isomer, unassigned) [S-MDMA, S(+)-MDMA]
- arousal/alertness and rearing (CD (Sprague Dawley) rats [1]; [3]): general increase in overall levels of arousal/alertness and rearing
- ease of removal from the home cage and handling reactivity (excitability) (CD (Sprague Dawley) rats [1]; [3]): Dose-dependent increased difficulty in removal from the home cage and increased handling reactivity
- forelimb grip strength (CD (Sprague Dawley) rats [1]; [3]): dose-dependent statistically significant decreases in forelimb grip strength
- salivation and erected fur (autonomic) (CD (Sprague Dawley) rats [1]; [3]): Dose-dependent increased salivation and erected fur
- unkempt appearance (CD (Sprague Dawley) rats [1]; [3]): increased incidence of unkempt appearance in a dose-dependent manner
- stereotypies (mouth movements/weaving, circling/retropulsion, sniffing) (CD (Sprague Dawley) rats [1]; 1 h after last of 4 hourly SC injections, highest doses: S-MDMA 10, racemic-MDMA 20 mg/kg/day, R-MDMA 10, 20 mg/kg/day): observed in animals treated with S-MDMA and racemic-MDMA only at the highest tested doses; also recorded: only one S-MDMA-treated animal was reported with stereotypical behaviors
- general gait/mobility changes (CD (Sprague Dawley) rats [1]; [4]): General gait/mobility changes were only observed
- respiration (CD (Sprague Dawley) rats [1]; [4]): Rapid respiration was noted
- Rank Order Activity Measurement Effects (CD (Sprague Dawley) rats [1]; [5]): S-MDMA (5 mg/kg/day) < R-MDMA (10 mg/kg/day) < Rac.-MDMA (10 mg/kg/day); also recorded: Rac.-MDMA (20 mg/kg/day) < S-MDMA (10 mg/kg/day) < R-MDMA (20 mg/kg/day); also recorded: S-MDMA (0 mg/kg/day) < S-MDMA (5 mg/kg/day) < S-MDMA (10 mg/kg/day); also recorded: Rac.-MDMA (20 mg/kg/day) < S-MDMA (10 mg/kg/day) < R-MDMA (10 mg/kg/day)
- Rank Order Autonomic Measurement Effects (CD (Sprague Dawley) rats [1]; [5]): R-MDMA (10 mg/kg/day) < S-MDMA (5 mg/kg/day) < Rac.-MDMA (10 mg/kg/day); also recorded: R-MDMA (20 mg/kg/day) < S-MDMA (10 mg/kg/day) < Rac-MDMA (20 mg/kg/day); also recorded: S-MDMA (0 mg/kg/day) < S-MDMA (5 mg/kg/day) < S-MDMA (10 mg/kg/day); also recorded: R-MDMA (10 mg/kg/day) < S-MDMA (10 mg/kg/day) = Rac-MDMA (20 mg/kg/day)
- Rank Order Excitability Measurement Effects (CD (Sprague Dawley) rats [1]; [5]): R-MDMA (10 mg/kg/day) < S-MDMA (5 mg/kg/day) < Rac.-MDMA (10 mg/kg/day); also recorded: R-MDMA (20 mg/kg/day) = S-MDMA (10 mg/kg/day) < Rac-MDMA (20 mg/kg/day); also recorded: S-MDMA (0 mg/kg/day) < S-MDMA (5 mg/kg/day) < S-MDMA (10 mg/kg/day); also recorded: R-MDMA (10 mg/kg/day) < S-MDMA (10 mg/kg/day) < Rac-MDMA (20 mg/kg/day)
- Rank Order Neuromuscular Measurement Effects (CD (Sprague Dawley) rats [1]; [5]): R-MDMA (10 mg/kg/day) < S-MDMA (5 mg/kg/day) < Rac.-MDMA (10 mg/kg/day); also recorded: R-MDMA (20 mg/kg/day) = S-MDMA (10 mg/kg/day) < Rac-MDMA (20 mg/kg/day); also recorded: S-MDMA (0 mg/kg/day) < S-MDMA (5 mg/kg/day) = S-MDMA (10 mg/kg/day); also recorded: R-MDMA (10 mg/kg/day) < S-MDMA (10 mg/kg/day) < Rac-MDMA (20 mg/kg/day)
- Rank Order Physiological Measurement Effects (CD (Sprague Dawley) rats [1]; [5]): R-MDMA (10 mg/kg/day) < S-MDMA (5 mg/kg/day) < Rac.-MDMA (10 mg/kg/day); also recorded: R-MDMA (20 mg/kg/day) < S-MDMA (10 mg/kg/day) = Rac-MDMA (20 mg/kg/day); also recorded: S-MDMA (0 mg/kg/day) < S-MDMA (5 mg/kg/day) < S-MDMA (10 mg/kg/day); also recorded: R-MDMA (10 mg/kg/day) < S-MDMA (10 mg/kg/day) = Rac-MDMA (20 mg/kg/day)
- Rank Order Sensorimotor Measurement Effects (CD (Sprague Dawley) rats [1]; [5]): S-MDMA (5 mg/kg/day) < Rac-MDMA (10 mg/kg/day) < R-MDMA (10 mg/kg/day); also recorded: S-MDMA (10 mg/kg/day) < Rac-MDMA (20 mg/kg/day) < R-MDMA (20 mg/kg/day); also recorded: S-MDMA (0 mg/kg/day) < S-MDMA (10 mg/kg/day) < S-MDMA (5 mg/kg/day)
- thermal response times (CD (Sprague Dawley) rats [1]; at levels at least two-fold that of vehicle-treated groups, 1 h after last of 4 hourly SC injections): Statistically significant increases in thermal response times
- hemodynamic parameters (systolic/diastolic/mean arterial blood pressures and heart rate) (CD (Sprague Dawley) rats [2]; 4 hourly SC injections, cumulative doses 5, 10, or 20 mg/kg/day): dose-dependent blood pressure-increasing effects
- period of significantly decreased body temperature compared to R-MDMA (10 mg/kg/day) (CD (Sprague Dawley) rats [2]; S-MDMA 10 mg/kg/day, approximate): 0.5-1 hours post initiation of dosing
- body temperature response (CD (Sprague Dawley) rats [2]; S-MDMA 5, 10 mg/kg/day, racemic-MDMA 10, 20 mg/kg/day, 4 hourly SC injections): hyperthermic response
- activity (implanted telemetry devices) (CD (Sprague Dawley) rats [2]; all cumulative doses (5, 10, or 20 mg/kg/day)): Activity-increasing effects
- blood pressure increase [mean arterial pressure] (CD (Sprague Dawley) rats [2]; maximum change, R-MDMA and racemic MDMA 10, 20 mg/kg/day, S-MDMA 5, 10 mg/kg/day, 4 hourly SC injections): up to +36%
- peak body temperatures (CD (Sprague Dawley) rats [2]; overall mean magnitude of change, 4 hourly SC injections): 39.5 °C
- period of significantly increased body temperature compared to R-MDMA (10 mg/kg/day) (CD (Sprague Dawley) rats [2]; [6]): 3.5-4 hours post initiation of dosing
- period of significantly increased heart rate compared to R-MDMA (10 mg/kg/day) (CD (Sprague Dawley) rats [2]; [6]): 5-10 hours post initiation of dosing
- period of significantly increased mean arterial blood pressure compared to R-MDMA (10 mg/kg/day) (CD (Sprague Dawley) rats [2]; [6]): 1.5-3 hours post initiation of dosing
- period of significantly increased systolic blood pressure compared to R-MDMA (10 mg/kg/day) (CD (Sprague Dawley) rats [2]; [6]): 1.5-3 hours post initiation of dosing
- Rank Order Blood Pressures (Systolic, Diastolic, and Mean Arterial) Effects (CD (Sprague Dawley) rats [2]; [7]): R-MDMA (10 mg/kg/day) < S-MDMA (5 mg/kg/day) < Rac.-MDMA (10 mg/kg/day); also recorded: R-MDMA (20 mg/kg/day) < S-MDMA (10 mg/kg/day) < Rac-MDMA (20 mg/kg/day); also recorded: S-MDMA (0 mg/kg/day) < S-MDMA (5 mg/kg/day) < S-MDMA (10 mg/kg/day); also recorded: R-MDMA (10 mg/kg/day) < S-MDMA (10 mg/kg/day) < Rac-MDMA (20 mg/kg/day)
- Rank Order Body Temperature Effects (CD (Sprague Dawley) rats [2]; [7]): R-MDMA (10 mg/kg/day) < S-MDMA (5 mg/kg/day) < Rac.-MDMA (10 mg/kg/day); also recorded: R-MDMA (20 mg/kg/day) < S-MDMA (10 mg/kg/day) < Rac-MDMA (20 mg/kg/day); also recorded: S-MDMA (0 mg/kg/day) < S-MDMA (5 mg/kg/day) < S-MDMA (10 mg/kg/day); also recorded: R-MDMA (10 mg/kg/day) < S-MDMA (10 mg/kg/day) < Rac-MDMA (20 mg/kg/day)
- Rank Order General Activity Effects (CD (Sprague Dawley) rats [2]; [7]): R-MDMA (10 mg/kg/day) < S-MDMA (5 mg/kg/day) < Rac.-MDMA (10 mg/kg/day); also recorded: R-MDMA (20 mg/kg/day) < S-MDMA (10 mg/kg/day) < Rac-MDMA (20 mg/kg/day); also recorded: S-MDMA (0 mg/kg/day) < S-MDMA (5 mg/kg/day) < S-MDMA (10 mg/kg/day); also recorded: R-MDMA (10 mg/kg/day) < S-MDMA (10 mg/kg/day) < Rac-MDMA (20 mg/kg/day)
- Rank Order Heart Rate Measurement Effects (CD (Sprague Dawley) rats [2]; [7]): R-MDMA (10 mg/kg/day) < S-MDMA (5 mg/kg/day) < Rac.-MDMA (10 mg/kg/day); also recorded: R-MDMA (20 mg/kg/day) < S-MDMA (10 mg/kg/day) < Rac-MDMA (20 mg/kg/day); also recorded: S-MDMA (0 mg/kg/day) < S-MDMA (5 mg/kg/day) < S-MDMA (10 mg/kg/day); also recorded: R-MDMA (10 mg/kg/day) < S-MDMA (10 mg/kg/day) < Rac-MDMA (20 mg/kg/day)
